# In patent publication US6481154B1, “Method of large-scale propagation of trees of genus Swietenia” (Sumitomo Forestry Co., Ltd., priority 2000, dated 2002):
# Experiments:
# [1] = test system: single shoots of Swietenia macrophylla; assay: Rooting conditions (4): modified B5, then modified MS, then modified B5, one month each; format: cell-based
# Method: A large number of shoots obtained in (4) were cut to single shoots which were cultured in the following procedures:
# (4) The single shoots were cultured on a modified B5 medium containing 0 to 10.0 mg/l of IBA for one month, then on a modified MS medium containing 0 to 10.0 mg/l of IBA for one month and further on a modified B5 medium containing 0 to 10.0 mg/l of IBA for one month.
# All the above (1)-(4) cultures were conducted under conditions wherein a temperature was 26±2° C., a humidity was 60 to 90% and a light intensity was 3,000 to 9,000 Lux. Further, all the modified media in the above (1)-(4) contained 2.8 g/l of gelright.
# [2] = test system: single shoots of Swietenia macrophylla; assay: Rooting of single shoots on modified B5 rooting medium; format: cell-based
# Method: A large number of shoots obtained in (4) are cut to single shoots, which were then transplanted to a rooting medium. […] Culturing temperature was 26±2° C. under illumination of fluorescent lamps for 16 hours per day (3,000 to 9,000 Lux).
smiles,measurement,setting,value
"O=C(O)CCCc1c[nH]c2ccccc12 [IBA, 3-indole butyric acid]",Rooting rate (%) For first one month,[1]; IBA 0.1 mg/l,0.0%
same,Rooting rate (%) For second one month,[1]; IBA 0.1 mg/l,0.0%
same,Rooting rate (%) For third one month,[1]; IBA 0.1 mg/l,0.0%
same,Withering rate (%) For first one month,[1]; IBA 0.1 mg/l,84.6%
same,Withering rate (%) For second one month,[1]; IBA 0.1 mg/l,88.5%
same,Withering rate (%) For third one month,[1]; IBA 0.1 mg/l,100.0%
same,Rooting rate (%) For first one month,[1]; IBA 1.0 mg/l,0.0%
same,Rooting rate (%) For second one month,[1]; IBA 1.0 mg/l,0.0%
same,Rooting rate (%) For third one month,[1]; IBA 1.0 mg/l,10.0%
same,Withering rate (%) For first one month,[1]; IBA 1.0 mg/l,10.0%
same,Withering rate (%) For second one month,[1]; IBA 1.0 mg/l,50.0%
same,Withering rate (%) For third one month,[1]; IBA 1.0 mg/l,70.0%
same,Rooting rate (%) For first one month,[1]; IBA 2.0 mg/l,0.0%
same,Rooting rate (%) For second one month,[1]; IBA 2.0 mg/l,10.0%
same,Rooting rate (%) For third one month,[1]; IBA 2.0 mg/l,10.0%
same,Withering rate (%) For first one month,[1]; IBA 2.0 mg/l,0.0%
same,Withering rate (%) For second one month,[1]; IBA 2.0 mg/l,40.0%
same,Withering rate (%) For third one month,[1]; IBA 2.0 mg/l,50.0%
same,Rooting rate (%) For first one month,[1]; IBA 2.5 mg/l,0.0%
same,Rooting rate (%) For second one month,[1]; IBA 2.5 mg/l,30.0%
same,Rooting rate (%) For third one month,[1]; IBA 2.5 mg/l,50.0%
same,Withering rate (%) For first one month,[1]; IBA 2.5 mg/l,0.0%
same,Withering rate (%) For second one month,[1]; IBA 2.5 mg/l,40.0%
same,Withering rate (%) For third one month,[1]; IBA 2.5 mg/l,40.0%
same,Rooting rate (%) For first one month,[1]; IBA 3.0 mg/l,0.0%
same,Rooting rate (%) For second one month,[1]; IBA 3.0 mg/l,10.0%
same,Rooting rate (%) For third one month,[1]; IBA 3.0 mg/l,20.0%
same,Withering rate (%) For first one month,[1]; IBA 3.0 mg/l,0.0%
same,Withering rate (%) For second one month,[1]; IBA 3.0 mg/l,60.0%
same,Withering rate (%) For third one month,[1]; IBA 3.0 mg/l,70.0%
same,Rooting rate (%) For first one month,[1]; IBA 4.0 mg/l,0.0%
same,Rooting rate (%) For second one month,[1]; IBA 4.0 mg/l,0.0%
same,Rooting rate (%) For third one month,[1]; IBA 4.0 mg/l,0.0%
same,Withering rate (%) For first one month,[1]; IBA 4.0 mg/l,40.0%
same,Withering rate (%) For second one month,[1]; IBA 4.0 mg/l,70.0%
same,Withering rate (%) For third one month,[1]; IBA 4.0 mg/l,100.0%
same,Rooting rate (%) For first one month,[1]; IBA 5.0 mg/l,0.0%
same,Rooting rate (%) For second one month,[1]; IBA 5.0 mg/l,0.0%
same,Rooting rate (%) For third one month,[1]; IBA 5.0 mg/l,0.0%
same,Withering rate (%) For first one month,[1]; IBA 5.0 mg/l,50.0%
same,Withering rate (%) For second one month,[1]; IBA 5.0 mg/l,90.0%
same,Withering rate (%) For third one month,[1]; IBA 5.0 mg/l,100.0%
same,Rooting rate (%) For first one month,[1]; IBA 10.0 mg/l,0.0%
same,Rooting rate (%) For second one month,[1]; IBA 10.0 mg/l,0.0%
same,Rooting rate (%) For third one month,[1]; IBA 10.0 mg/l,0.0%
same,Withering rate (%) For first one month,[1]; IBA 10.0 mg/l,70.0%
same,Withering rate (%) For second one month,[1]; IBA 10.0 mg/l,100.0%
same,Withering rate (%) For third one month,[1]; IBA 10.0 mg/l,100.0%
same,effectiveness for rooting,[2]; 2.5 mg/l of IBA,effective
same,single shoots rooted,"[2]; 1.0 to 5.0 mg/l of IBA, one to two months after the start of culturing",18.5%
same,Number of rooted single shoots,[2]; IBA 1.0 mg/l,1/27
same,Number of rooted single shoots,[2]; IBA 2.0 mg/l,2/30
same,Number of rooted single shoots,[2]; IBA 2.5 mg/l,5/27
same,Number of rooted single shoots,[2]; IBA 3.0 mg/l,0/26
same,Number of rooted single shoots,[2]; IBA 4.0 mg/l,1/25
same,Number of rooted single shoots,[2]; IBA 5.0 mg/l,0/26
same,Number of rooted single shoots,[2]; IBA 10.0 mg/l,0/26
